In the NIST ThermoML archive (doi:10.1016/j.fluid.2017.06.019):

Settings: Coaxial cylinder method

CCC [propane]
thermal conductivity [W/m/K]
Settings	364.65 K	365.72 K
3306 kPa, Gas	–	0.03402
3306 kPa, Liquid	–	0.03402
3818 kPa, Gas	0.04192	–
3819 kPa, Gas	0.04192	–
3820 kPa, Gas	0.04192	–
3826 kPa, Gas	0.04799	–
3827 kPa, Gas	0.05041	–
3828 kPa, Gas	0.05375	–
3829 kPa, Gas	0.05683	–
3830 kPa, Gas	0.05989	–
3831 kPa, Gas	0.06347	–
3832 kPa, Gas	0.0673	–
3833 kPa, Gas	0.07157	–
3834 kPa, Gas	0.0754	–
3835 kPa, Gas	0.07969	–
3836 kPa, Gas	0.08397	–
3837 kPa, Gas	0.08791	–
3838 kPa, Gas	0.09202	–
3839 kPa, Gas	0.09605	–
3840 kPa, Gas	0.1002	–
3841 kPa, Gas	0.1044	–
3842 kPa, Gas	0.1088	–
3843 kPa, Gas	0.1131	–
3844 kPa, Gas	0.1173	–
3845 kPa, Gas	0.1218	–
3846 kPa, Gas	0.1263	–
3847 kPa, Gas	0.1307	–
3848 kPa, Gas	0.135	–
3849 kPa, Gas	0.14	–
3850 kPa, Gas	0.1445	–
3851 kPa, Gas	0.1491	–
3852 kPa, Gas	0.1538	–
3853 kPa, Gas	0.1584	–
3854 kPa, Gas	0.1635	–
3855 kPa, Gas	0.1693	–
3856 kPa, Gas	0.1732	–
3857 kPa, Gas	0.1782	–
3858 kPa, Gas	0.1831	–
3859 kPa, Gas	0.1881	–
3860 kPa, Gas	0.1933	–
3861 kPa, Gas	0.1983	–
3862 kPa, Gas	0.2036	–
3863 kPa, Gas	0.2089	–
3864 kPa, Gas	0.2141	–
3865 kPa, Gas	0.2194	–
3866 kPa, Gas	0.2249	–
3867 kPa, Gas	0.2303	–
3868 kPa, Gas	0.2361	–
3869 kPa, Gas	0.2404	–
3870 kPa, Liquid	0.2611	–
3871 kPa, Liquid	0.2548	–
3872 kPa, Liquid	0.249	–
3873 kPa, Liquid	0.2424	–
3874 kPa, Liquid	0.2366	–
3875 kPa, Liquid	0.2306	–
3876 kPa, Liquid	0.2246	–
3877 kPa, Liquid	0.2189	–
3878 kPa, Liquid	0.2127	–
3879 kPa, Liquid	0.2068	–
3880 kPa, Liquid	0.2008	–
3881 kPa, Liquid	0.1952	–
3882 kPa, Gas	–	0.04279
3882 kPa, Liquid	0.1898	–
3883 kPa, Gas	–	0.04289
3883 kPa, Liquid	0.1838	–
3884 kPa, Gas	–	0.04575
3884 kPa, Liquid	0.1778	–
3885 kPa, Gas	–	0.04607
3885 kPa, Liquid	0.1728	–
3886 kPa, Liquid	0.1668	–
3887 kPa, Liquid	0.1613	–
3888 kPa, Liquid	0.1556	–
3889 kPa, Liquid	0.1503	–
3890 kPa, Gas	–	0.05157
3890 kPa, Liquid	0.1444	–
3891 kPa, Gas	–	0.05307
3891 kPa, Liquid	0.1391	–
3892 kPa, Gas	–	0.05526
3892 kPa, Liquid	0.1337	–
3893 kPa, Gas	–	0.0573
3893 kPa, Liquid	0.1279	–
3894 kPa, Gas	–	0.05933
3894 kPa, Liquid	0.1224	–
3895 kPa, Gas	–	0.06131
3895 kPa, Liquid	0.117	–
3896 kPa, Gas	–	0.06342
3896 kPa, Liquid	0.1115	–
3897 kPa, Gas	–	0.06568
3897 kPa, Liquid	0.1061	–
3898 kPa, Gas	–	0.06813
3898 kPa, Liquid	0.1008	–
3899 kPa, Gas	–	0.07049
3899 kPa, Liquid	0.09527	–
3900 kPa, Gas	–	0.07276
3900 kPa, Liquid	0.08987	–
3901 kPa, Gas	–	0.07497
3901 kPa, Liquid	0.08442	–
3902 kPa, Gas	–	0.07801
3902 kPa, Liquid	0.07906	–
3903 kPa, Gas	–	0.0811
3903 kPa, Liquid	0.07632	–
3904 kPa, Gas	–	0.08423
3904 kPa, Liquid	0.0735	–
3905 kPa, Gas	–	0.08726
3905 kPa, Liquid	0.07087	–
3906 kPa, Gas	–	0.09038
3906 kPa, Liquid	0.06861	–
3907 kPa, Gas	–	0.09365
3907 kPa, Liquid	0.06633	–
3908 kPa, Gas	–	0.09697
3908 kPa, Liquid	0.06424	–
3909 kPa, Gas	–	0.1001
3909 kPa, Liquid	0.06367	–
3910 kPa, Gas	–	0.1033
3910 kPa, Liquid	0.06367	–
3911 kPa, Gas	–	0.1068
3911 kPa, Liquid	0.06367	–
3912 kPa, Gas	–	0.1099
3912 kPa, Liquid	0.06367	–
3913 kPa, Gas	–	0.1132
3913 kPa, Liquid	0.06367	–
3914 kPa, Gas	–	0.1164
3914 kPa, Liquid	0.06367	–
3915 kPa, Gas	–	0.1201
3915 kPa, Liquid	0.0637	–
3916 kPa, Gas	–	0.1234
3917 kPa, Gas	–	0.1273
3918 kPa, Gas	–	0.1307
3919 kPa, Gas	–	0.1341
3920 kPa, Gas	–	0.1379
3920 kPa, Liquid	0.06366	–
3921 kPa, Gas	–	0.1413
3922 kPa, Gas	–	0.1454
3923 kPa, Gas	–	0.149
3924 kPa, Gas	–	0.1527
3925 kPa, Gas	–	0.1565
3925 kPa, Liquid	0.06366	–
3926 kPa, Gas	–	0.1605
3927 kPa, Gas	–	0.1644
3928 kPa, Gas	–	0.1684
3929 kPa, Gas	–	0.1724
3930 kPa, Gas	–	0.1763
3930 kPa, Liquid	0.06362	–
3931 kPa, Gas	–	0.1804
3932 kPa, Gas	–	0.1846
3933 kPa, Gas	–	0.1886
3934 kPa, Gas	–	0.1932
3935 kPa, Gas	–	0.1972
3935 kPa, Liquid	0.06364	–
3936 kPa, Gas	–	0.2015
3937 kPa, Gas	–	0.2059
3938 kPa, Gas	–	0.2104
3939 kPa, Gas	–	0.2148
3940 kPa, Gas	–	0.2193
3940 kPa, Liquid	0.06364	–
3941 kPa, Gas	–	0.2241
3942 kPa, Gas	–	0.229
3943 kPa, Gas	–	0.2336
3944 kPa, Gas	–	0.2401
3945 kPa, Liquid	0.06362	0.2612
3946 kPa, Liquid	–	0.2502
3947 kPa, Liquid	–	0.2373
3948 kPa, Liquid	–	0.224
3949 kPa, Liquid	–	0.2125
3950 kPa, Liquid	0.06362	0.2005
3951 kPa, Liquid	–	0.1903
3952 kPa, Liquid	–	0.1805
3953 kPa, Liquid	–	0.1711
3954 kPa, Liquid	–	0.1622
3955 kPa, Liquid	0.06362	0.1544
3956 kPa, Liquid	–	0.1467
3957 kPa, Liquid	–	0.1394
3958 kPa, Liquid	–	0.1335
3959 kPa, Liquid	–	0.1273
3960 kPa, Liquid	0.06362	0.1217
3961 kPa, Liquid	–	0.1164
3962 kPa, Liquid	–	0.1139
3963 kPa, Liquid	–	0.1116
3964 kPa, Liquid	–	0.1094
3965 kPa, Liquid	0.06362	0.1072
3966 kPa, Liquid	–	0.1052
3967 kPa, Liquid	–	0.1032
3968 kPa, Liquid	–	0.1013
3969 kPa, Liquid	–	0.09939
3970 kPa, Liquid	0.06362	0.09778
3971 kPa, Liquid	–	0.09605
3972 kPa, Liquid	–	0.09456
3973 kPa, Liquid	–	0.09289
3974 kPa, Liquid	–	0.09145
3975 kPa, Liquid	0.0636	0.09005
3976 kPa, Liquid	–	0.08869
3977 kPa, Liquid	–	0.08737
3980 kPa, Liquid	0.0636	–
4000 kPa, Liquid	0.06363	–
4020 kPa, Liquid	0.06367	–
4040 kPa, Liquid	0.06367	–
4060 kPa, Liquid	0.06371	–
4080 kPa, Liquid	0.06377	–
4100 kPa, Liquid	0.06381	–
4120 kPa, Liquid	0.06385	–
4140 kPa, Liquid	0.06391	–
4160 kPa, Liquid	0.06398	–
4180 kPa, Liquid	0.06404	–
4200 kPa, Liquid	0.06412	–
4220 kPa, Liquid	0.06418	–
4240 kPa, Liquid	0.06424	–
4260 kPa, Liquid	0.06432	–
4280 kPa, Liquid	0.06439	–
4300 kPa, Liquid	0.06445	–
4349 kPa, Liquid	0.06465	–
4364 kPa, Liquid	0.06469	–
4372 kPa, Liquid	0.06473	–
4380 kPa, Liquid	0.06475	–
4388 kPa, Liquid	0.06475	–
